Test results as given in ChEMBL document CHEMBL5108012, “Discovery of 2,5-diphenyl-1,3,4-thiadiazole derivatives as HDAC inhibitors with DNA binding affinity” (Eur J Med Chem, 2022).
Calls of active or inactive are those of the source. The calls are words filed in the database; no cut-off is given here.

Key:
[1] = system: HCT-116; assay: Downregulation of SSRP-1 expression in human HCT-116 cells at 0.17 to 1.5 uM measured after 24 hrs by Western blot analysis; assay type: functional, cell-based; conditions: dose 0.17-1.5 µM
[2] = system: HCT-116; assay: Induction of apoptosis in human HCT-116 cells assessed as early apoptotic cells at 1.5 uM incubated for 48 hrs by PI and annexin V-FITC staining based flow cytometry (reference value: 3.4%); assay type: functional
[3] = system: MC38; assay: Inhibition of HDAC in mouse MC-38 cells assessed as increase in acetylated alpha-tubulin expression expression at 0.17 to 1.5 uM incubated for 48 hrs by Western blot analysis; assay type: cell-based; conditions: dose 0.17-1.5 µM
[4] = system: DNA; assay: Binding affinity to pBR322 DNA (unknown origin) at 10 to 50 uM after 30 mins by Agarose gel electrophoresis; assay type: nucleic-acid assay; conditions: dose 10-50 µM
[5] = system: K562; assay: Antiproliferative activity against human K562 cells after 48 hrs by CCK-8 assay; assay type: functional, cell-based; conditions: K562, 48 h
[6] = system: MC-38; assay: Antitumor activity against mouse MC38 cells xenografted in C57BL/6 mouse assessed as tumor growth inhibition at 100 mg/kg, ip administered every 2 days for 16 consecutive days; assay type: functional; conditions: MC-38, 384 h, time 16 day, read-out: TGI
[7] = biological target: T1, Histone deacetylase 8 (Homo sapiens, UniProt Q9BY41); assay: Inhibition of HDAC8 in human HeLa cell nuclear extract using Boc-Lys(Ac)-AMC or Boc-Lys(triflouroacetyl)-AMC as substrate incubated for 30 mins and measured by fluorescence assay; assay type: cell-free
T1 sequence (Q9BY41 whole entry): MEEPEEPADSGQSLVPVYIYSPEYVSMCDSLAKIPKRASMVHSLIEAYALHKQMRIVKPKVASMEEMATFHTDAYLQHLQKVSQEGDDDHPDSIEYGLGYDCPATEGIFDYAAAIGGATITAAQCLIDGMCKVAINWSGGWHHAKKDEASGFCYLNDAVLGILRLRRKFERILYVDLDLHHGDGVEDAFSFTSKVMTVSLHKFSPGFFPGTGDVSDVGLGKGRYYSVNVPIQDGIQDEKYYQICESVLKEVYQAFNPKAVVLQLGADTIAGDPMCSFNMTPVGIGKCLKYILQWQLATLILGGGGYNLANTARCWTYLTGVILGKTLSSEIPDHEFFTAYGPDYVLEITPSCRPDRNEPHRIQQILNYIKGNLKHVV

[8] = biological target: Histone deacetylase (HDAC1 and HDAC2) (Homo sapiens, UniProt Q13547+Q92769); assay: Inhibition of HDAC1/HDAC2 in human HeLa cell nuclear extract using Boc-Lys(Ac)-AMC as substrate and measured by fluorometric method; assay type: cell-based
[9] = biological target: T2, Protein deacetylase HDAC6 (Homo sapiens, UniProt Q9UBN7); assay: Inhibition of HDAC6 in human HeLa cell nuclear extract using Boc-Lys(Ac)-AMC or Boc-Lys(triflouroacetyl)-AMC as substrate incubated for 30 mins and measured by fluorescence assay; assay type: cell-free
T2 sequence (Q9UBN7 whole entry): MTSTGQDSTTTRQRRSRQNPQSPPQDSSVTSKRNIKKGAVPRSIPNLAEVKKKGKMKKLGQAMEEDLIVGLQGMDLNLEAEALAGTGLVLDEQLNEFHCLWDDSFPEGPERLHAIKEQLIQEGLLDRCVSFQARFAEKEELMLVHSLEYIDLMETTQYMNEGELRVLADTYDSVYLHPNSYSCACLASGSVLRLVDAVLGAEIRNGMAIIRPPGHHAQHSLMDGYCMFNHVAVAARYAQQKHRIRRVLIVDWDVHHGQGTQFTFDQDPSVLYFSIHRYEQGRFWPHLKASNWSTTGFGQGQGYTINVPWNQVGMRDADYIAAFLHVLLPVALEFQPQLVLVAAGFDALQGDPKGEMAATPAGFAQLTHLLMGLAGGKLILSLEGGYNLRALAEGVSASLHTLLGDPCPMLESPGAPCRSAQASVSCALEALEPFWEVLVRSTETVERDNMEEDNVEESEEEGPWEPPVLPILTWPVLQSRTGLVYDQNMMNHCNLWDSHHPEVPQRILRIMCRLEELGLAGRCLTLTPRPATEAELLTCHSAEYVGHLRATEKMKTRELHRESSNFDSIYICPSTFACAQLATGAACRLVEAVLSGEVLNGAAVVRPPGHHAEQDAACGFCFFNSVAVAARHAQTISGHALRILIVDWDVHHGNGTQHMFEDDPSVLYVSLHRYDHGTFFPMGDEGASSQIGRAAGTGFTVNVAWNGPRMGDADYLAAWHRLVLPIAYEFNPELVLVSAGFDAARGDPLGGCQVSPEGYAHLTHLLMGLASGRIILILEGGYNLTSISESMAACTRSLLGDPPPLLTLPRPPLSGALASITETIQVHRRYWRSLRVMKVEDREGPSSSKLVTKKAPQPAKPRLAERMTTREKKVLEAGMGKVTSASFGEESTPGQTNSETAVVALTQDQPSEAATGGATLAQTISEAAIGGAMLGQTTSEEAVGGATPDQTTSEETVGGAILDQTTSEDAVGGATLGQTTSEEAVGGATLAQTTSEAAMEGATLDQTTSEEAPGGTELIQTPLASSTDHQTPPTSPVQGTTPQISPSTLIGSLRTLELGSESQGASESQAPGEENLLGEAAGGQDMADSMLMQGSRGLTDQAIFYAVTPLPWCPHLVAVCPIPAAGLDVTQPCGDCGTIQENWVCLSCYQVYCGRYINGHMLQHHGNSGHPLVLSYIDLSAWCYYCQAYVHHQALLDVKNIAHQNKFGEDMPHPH

[10] = biological target: T3, Histone deacetylase (Homo sapiens) (UniProt Q13547+O15379+Q9UBN7+Q92769+Q9UQL6+Q8WUI4+Q9BY41+Q96DB2+P56524+Q9UKV0+Q969S8); assay: Inhibition of HDAC in human HCT-116 cells assessed as increase in acetylated alpha-tubulin expression expression at 0.17 to 1.5 uM incubated for 48 hrs by Western blot analysis; assay type: cell-based; conditions: dose 0.17-1.5 µM
[11] = system: MC-38; assay: Antitumor activity against mouse MC38 cells xenografted in C57BL/6 mouse assessed as tumor growth inhibition at 50 mg/kg, ip administered every 2 days for 16 consecutive days; assay type: functional; conditions: MC-38, 384 h, time 16 day, read-out: TGI
[12] = system: MC-38; assay: Antitumor activity against mouse MC38 cells xenografted in C57BL/6 mouse assessed as induction of apoptosis in tumor at 50 to 100 mg/kg, ip administered every 2 days for 16 consecutive days measured by TUNEL staining based assay; assay type: functional, organism-based; conditions: dose 50-100 mg/kg, time 16.0 day
[13] = biological target: T3, Histone deacetylase (Homo sapiens); assay: Inhibition of HDAC in human HCT-116 cells assessed as increase in acetylated HH3 expression expression at 0.17 to 1.5 uM incubated for 48 hrs by Western blot analysis; assay type: cell-based; conditions: dose 0.17-1.5 µM
[14] = system: HepG2; assay: Antiproliferative activity against human HepG2 cells after 48 hrs by CCK-8 assay; assay type: functional, cell-based; conditions: HepG2, 48 h
[15] = system: HeLa; assay: Antiproliferative activity against human HeLa cells after 48 hrs by CCK-8 assay; assay type: functional, cell-based
[16] = system: MC-38; assay: Antitumor activity against mouse MC38 cells xenografted in C57BL/6 mouse assessed as decrease in tumor volume at 50 to 100 mg/kg, ip administered every 2 days for 16 consecutive days; assay type: functional, organism-based; conditions: dose 50-100 mg/kg, time 16.0 day

With `O=C(CCCCCOc1cccc(-c2nnc(-c3ccccc3)s2)c1)NO` the Activity [1] was “Active”, the Activity [2] was 38.5% and the inhibition [3] was “Active”. For the same molecule, the Activity [4] was “Active”, the IC50 [5] was 910 nM and the inhibition in vivo at 100 mg/kg [6] was 85.2%. The IC50 [7] was 3030 nM, the IC50 [8] was 38 nM and the IC50 [9] was 20 nM. The inhibition [10] was “Active”, the inhibition in vivo at 50 mg/kg [11] was 66% and the Activity [12] was “Active”. For the same molecule, the inhibition [13] was “Active”, the IC50 [14] was 1400 nM and the IC50 [15] was 780 nM. For the same molecule, the Activity [16] was “Active”.
